Results on 2 compounds are retold here after US20200222391A1, “SOLID PREPARATION OF CARIPRAZINE FOR ORAL ADMINISTRATION” (Richter Gedeon Nyrt., priority 2017, published 2020).

Data set [1] can be described thus: pH-solubility of cariprazine hydrochloride at 37° C. The class given is physicochemical. The text has this: Cariprazine salts are very well soluble in acidic environment. However, drugs, which are soluble in acidic environment can be practically insoluble in neutral or basic environment.
Data set [2] in a line: Caco-2 model of drug absorption (permeability). The class given is in vitro ADME. The note with it: human, read-out: permeability directional ratio (PDR). How it is done:
In the Caco-2 model of drug absorption, the permeability coefficients of cariprazine in inward and outward directions were calculated to be 26.4.10-6 cm/sec and 51.2.10-6 cm/sec, respectively (permeability directional ratio (PDR): 1.9) (Artursson P & Karlsson J (1991). “Correlation between oral drug absorption in humans and apparent drug permeability coefficients in human intestinal epithelial (Caco-2) cells”. Biochem Biophys Res Comm 175 (3): 880-5 and internal data).

For orientation: solubility means how much of the substance goes into solution per volume.

Where a name gives a salt, the structure may show the parent alone. Read-outs that look alike come from different tables or passages of the source.

`CN(C)C(=O)N[C@H]1CC[C@H](CCN2CCN(c3cccc(Cl)c3Cl)CC2)CC1` [cariprazine hydrochloride]: the “pH value of best solubility” value in data set [1] is reported as approximately 3. Also, the solubility in data set [1] (37 °C, pH 1, simulated gastric fluid, pH 1, read-out: Solubility) was 3260 µg/mL; in data set [1] (37 °C, pH 2, simulated gastric fluid, pH 2, read-out: Solubility), 8930 µg/mL; in data set [1] (37 °C, pH 3, aqueous buffer, pH 3, read-out: Solubility), 11000 µg/mL; in data set [1] (37 °C, pH 4, aqueous buffer, pH 4, read-out: Solubility), 3230 µg/mL; in data set [1] (37 °C, pH 5, aqueous buffer, pH 5, read-out: Solubility), 351 µg/mL; in data set [1] (37 °C, pH 5.5, aqueous buffer, pH 5.5, read-out: Solubility), 149 µg/mL. Further, the solubility in data set [1] (37 °C, pH 6, aqueous buffer, pH 6, read-out: Solubility) is 18.8 µg/mL; in data set [1] (37 °C, pH 7, aqueous buffer, pH 7, read-out: Solubility) it was 1 µg/mL; in data set [1] (pH 1, hydrochloride), 3257.9 µg/mL; in data set [1] (pH 7, hydrochloride), 1.3 µg/mL.
On to `CN(C)C(=O)N[C@H]1CC[C@H](CCN2CCN(c3cccc(Cl)c3Cl)CC2)CC1` [cariprazine, trans-N-{4-[2-[4-(2,3-dichlorophenyl)-piperazin-1-yl]-ethyl]-cyclohexyl}-N′,N′-dimethylurea], for which the efflux ratio in data set [2] amounted to 1.9.
